From patent US10676479B2, “Imidazolepyridine compounds and uses thereof” (Novartis AG, priority 2016, dated 2020)

Columns and labels:
[1] = molecular target: wild type PRC2 (wtPRC2) complex (Homo sapiens (Human), UniProt O75530); test: EED LC-MS assay; format: biochemical; settings: EED LC-MS Qualified assay; read-out: (b) IC50
Protocol: EED LC-MS Assay Representative compounds of the present invention were serially and separately diluted 3-fold in DMSO to obtain a total of eight or twelve concentrations. […] A 6 μL solution of 3 μM of the peptide substrate H3K27Me0 (histone H3[21-44]-biotin) in reaction buffer was added to initiate each reaction. […] The data were then fit to a dose response equation using the program Helios to get the IC50 values of the test compound.

EED (1-441)-His protein = EED (1-441)-His protein (Homo sapiens (Human), UniProt O75530); test: EED-H3K27Me3 peptide competition binding assay by AlphaScreen; settings: EED Alphascreen binding Qualified assay
Sequence of EED (1-441)-His protein (O75530 whole entry): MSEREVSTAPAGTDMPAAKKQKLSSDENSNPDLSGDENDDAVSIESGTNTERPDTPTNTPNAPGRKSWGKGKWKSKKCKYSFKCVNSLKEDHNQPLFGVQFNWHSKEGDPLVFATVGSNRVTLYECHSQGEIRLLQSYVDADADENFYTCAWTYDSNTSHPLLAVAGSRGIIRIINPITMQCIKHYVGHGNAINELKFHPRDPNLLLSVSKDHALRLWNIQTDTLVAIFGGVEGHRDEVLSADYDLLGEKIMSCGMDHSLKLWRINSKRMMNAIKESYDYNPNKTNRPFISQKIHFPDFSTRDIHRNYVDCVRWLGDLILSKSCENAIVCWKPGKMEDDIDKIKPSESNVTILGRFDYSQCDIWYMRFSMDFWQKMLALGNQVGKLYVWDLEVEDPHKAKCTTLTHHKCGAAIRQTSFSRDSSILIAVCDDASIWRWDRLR
Protocol: Then 4 μL of detection beads mix was added to the plate and incubate in the dark at the rt for 1 h. The final concentration of donor and acceptor beads was 10 μg/mL for each. […] The data were then fit to a dose response equation using the program Helios (Novartis) to get the IC50 values. […] Sebaugh, J. […] Each compound was counter screened to determine if it interfered with the AlphaScreen beads. […] The plates were then incubated for 1 h at rt in dark before being read on EnVison.

[2] = tested on: H3K27 methylation in G401 cell; test: ELISA (H3K27 methylation) assay; format: cell-based; settings: Homo sapiens, G-401, ELISA Qualified assay, 48 h, read-out: (c) IC50
Protocol: ELISA (H3K27 Methylation) Assay
Representative compounds of the present invention were serially and separately diluted 3-fold in DMSO to obtain a total of eight or twelve concentrations. Then the compounds were added to G401 cell cultured in 384-well plate at 1:500 dilution to obtain the highest concentration of 20 μM. The cells were further cultured for 48 h before ELISA procedure.
ELISA protocol: Cell lysates were transferred to the wells of a 384-well plate and the final volume was adjusted to 50 μL per well with PBS. The plate was sealed, centrifuged at 2,000 rpm for 2 min and incubated at 4° C. for about 16 h. The plate was washed with TBST buffer (1×TBS (10×TBS: 24.2 g Tris (Sigma, T6066), 80 g NaCl (Sigma, S3014) to 1 L of water and adjust pH to 7.6 with HCl) with 0.1% Tween-20). Blocking buffer (TBST, 5% BSA; 50 μL per well) was added and the plate was incubated for 1 h at rt. The blocking buffer was removed and primary antibody was added (30 μL per well). […] The primary antibody was incubated in the plate at rt for 1 h. The wells were washed with TBST and incubated with secondary antibody for 1 h at rt. […] After 1 h of incubation at rt, the wells were washed with TBST. […] The signal was read using a PerkinElmer Envision Reader. The H3K27 methylation readouts were normalized using H3 signal and then percentage inhibition was calculated against the samples treated with DMSO. The data were then fit to a dose response curve using the program Helios to get the IC50 values of the test compound.

Sequence of wild type PRC2 (wtPRC2) complex (O75530 whole entry): as above
Sequence of wild type PRC2 (wtPRC2) complex (Q15910 whole entry partner): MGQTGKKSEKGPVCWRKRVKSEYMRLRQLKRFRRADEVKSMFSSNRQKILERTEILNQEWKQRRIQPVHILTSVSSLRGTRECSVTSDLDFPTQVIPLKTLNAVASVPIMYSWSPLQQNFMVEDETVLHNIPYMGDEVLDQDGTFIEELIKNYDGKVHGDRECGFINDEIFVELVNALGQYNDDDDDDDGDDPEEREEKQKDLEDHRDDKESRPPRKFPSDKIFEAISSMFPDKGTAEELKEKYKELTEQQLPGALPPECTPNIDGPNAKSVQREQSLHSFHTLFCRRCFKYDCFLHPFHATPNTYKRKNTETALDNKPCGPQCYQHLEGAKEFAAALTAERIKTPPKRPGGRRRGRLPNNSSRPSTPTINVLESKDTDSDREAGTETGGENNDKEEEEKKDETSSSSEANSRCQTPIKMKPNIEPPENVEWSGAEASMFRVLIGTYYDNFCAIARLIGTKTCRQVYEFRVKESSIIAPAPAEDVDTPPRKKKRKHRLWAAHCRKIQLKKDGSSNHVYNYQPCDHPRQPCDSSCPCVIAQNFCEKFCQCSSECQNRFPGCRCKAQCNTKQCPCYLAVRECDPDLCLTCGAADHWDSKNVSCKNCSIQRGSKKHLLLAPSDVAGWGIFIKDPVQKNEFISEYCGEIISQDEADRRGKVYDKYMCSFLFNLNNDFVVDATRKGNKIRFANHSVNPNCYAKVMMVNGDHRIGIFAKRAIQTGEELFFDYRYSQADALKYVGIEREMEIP
Sequence of wild type PRC2 (wtPRC2) complex (Q15022 whole entry partner): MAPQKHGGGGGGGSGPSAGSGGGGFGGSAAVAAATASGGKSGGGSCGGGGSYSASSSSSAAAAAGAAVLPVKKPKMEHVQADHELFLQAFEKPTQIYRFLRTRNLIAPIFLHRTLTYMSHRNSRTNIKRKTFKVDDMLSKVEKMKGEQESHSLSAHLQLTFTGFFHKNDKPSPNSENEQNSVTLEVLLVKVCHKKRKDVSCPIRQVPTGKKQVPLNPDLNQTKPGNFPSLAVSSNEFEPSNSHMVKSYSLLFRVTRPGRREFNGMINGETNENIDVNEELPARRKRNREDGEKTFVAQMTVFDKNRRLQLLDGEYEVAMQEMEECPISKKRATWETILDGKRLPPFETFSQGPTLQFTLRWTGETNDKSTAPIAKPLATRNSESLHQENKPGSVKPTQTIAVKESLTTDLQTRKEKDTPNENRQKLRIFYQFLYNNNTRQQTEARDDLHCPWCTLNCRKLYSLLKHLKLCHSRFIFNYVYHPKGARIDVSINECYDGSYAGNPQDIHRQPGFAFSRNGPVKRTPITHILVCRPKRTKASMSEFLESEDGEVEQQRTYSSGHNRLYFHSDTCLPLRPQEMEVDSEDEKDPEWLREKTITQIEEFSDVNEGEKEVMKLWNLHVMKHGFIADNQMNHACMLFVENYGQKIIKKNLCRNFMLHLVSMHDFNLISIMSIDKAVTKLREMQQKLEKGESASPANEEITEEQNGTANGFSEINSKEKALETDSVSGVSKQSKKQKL

Row | Compound | IC50 [1] [µM] | IC50 (EED (1-441)-His protein) [µM] | IC50 [2] [µM]
1 | Cc1ncc(-c2cnc(NCc3c(F)ccc4c3CCO4)n3cnc([S+]([O-])c4ccccc4)c23)c(C)n1 (stereo not shown) [Example 14, 8-(2,4-Dimethylpyrimidin-5-yl)-N-((5-fluoro-2,3-dihydrobenzofuran-4-yl)methyl)-1-(phenylsulfinyl)imidazo[1,5-c]pyrimidin-5-amine] | 0.0234 | 0.0104 | 0.0049
2 | CC(c1ccc(-c2cnc(NCc3c(F)ccc4c3CCO4)n3cnc(C#N)c23)cc1)N1CCCC1 (stereo not shown) [Example 76, 5-(((5-fluoro-2,3-dihydrobenzofuran-4-yl)methyl)amino)-8-(4-(1-(pyrrolidin-1-yl)ethyl)phenyl)imidazo[1,5-c]pyrimidine-1-carbonitrile] | 0.0153 | 0.0056 | 0.0054
3 | CS(=O)(=O)c1ncn2c(NCc3c(F)ccc4c3CCO4)ncc(-c3cccnc3)c12 [Example 102, N-((5-fluoro-2,3-dihydrobenzofuran-4-yl)methyl)-1-(methylsulfonyl)-8-(pyridin-3-yl)imidazo[1,5-c]pyrimidin-5-amine] | 0.017 | 0.0069 | 0.0024
4 | N#Cc1ncn2c(NCc3c(F)ccc4c3CCO4)ncc(-c3cccnc3)c12 [Example 74, 5-(((5-fluoro-2,3-dihydrobenzofuran-4-yl)methyl)amino)-8-(pyridin-3-yl)imidazo[1,5-c]pyrimidine-1-carbonitrile] | 0.0156 | 0.0059 | 0.007
5 | Cc1nc(S(C)(=O)=O)ccc1-c1cnc(NCc2c(F)ccc3c2CCO3)n2cncc12 [Example 38, N-((5-fluoro-2,3-dihydrobenzofuran-4-yl)methyl)-8-(2-methyl-6-(methylsulfonyl)pyridin-3-yl)imidazo[1,5-c]pyrimidin-5-amine] | 0.0208 | 0.0094 | 0.0477
6 | Cn1cncc1-c1cnc(NCc2c(F)ccc3c2CCO3)n2cnc(C#N)c12 [Example 85, 5-(((5-fluoro-2,3-dihydrobenzofuran-4-yl)methyl)amino)-8-(1-methyl-1H-imidazol-5-yl)imidazo[1,5-c]pyrimidine-1-carbonitrile] | 0.0172 | 0.0045 | 0.0028
7 | Cc1ncccc1-c1cnc(NCc2c(F)ccc3c2CCO3)n2cnc(C(=O)NC3COC3)c12 [Example 106, 5-(((5-fluoro-2,3-dihydrobenzofuran-4-yl)methyl)amino)-8-(2-methylpyridin-3-yl)-N-(oxetan-3-yl)imidazo[1,5-c]pyrimidine-1-carboxamide] | 0.0165 |  | 0.0109
8 | Cc1nc(N2CC(C)NC(C)C2)ncc1-c1cnc(NCc2c(F)ccc3c2CCO3)n2cnc(C#N)c12 (stereo not shown) [Example 83, 8-(2-(3,5-dimethylpiperazin-1-yl)-4-methylpyrimidin-5-yl)-5-(((5-fluoro-2,3-dihydrobenzofuran-4-yl)methyl)amino)imidazo[1,5-c]pyrimidine-1-carbonitrile] | 0.0057 | 0.0023 | 0.0131
9 | Cc1cn(-c2cnc(NCc3c(F)ccc4c3CCO4)n3cnc(C#N)c23)cn1 [Example 6, 5-(((5-Fluoro-2,3-dihydrobenzofuran-4-yl)methyl)amino)-8-(4-methyl-1H-imidazol-1-yl)imidazo[1,5-c]pyrimidine-1-carbonitrile] | 0.0125 | 0.0042 | 0.0031
10 | Cc1ncccc1-c1cnc(NCc2c(F)ccc3c2CCO3)n2cnc(-c3ccccc3)c12 [Example 111, N-((5-fluoro-2,3-dihydrobenzofuran-4-yl)methyl)-8-(2-methylpyridin-3-yl)-1-phenylimidazo[1,5-c]pyrimidin-5-amine] | 0.0096 | 0.0076 | 0.0238
11 | CS(=O)(=O)c1ccc(-c2cnc(NCc3c(F)ccc4c3CCO4)n3cnc(Cl)c23)cc1 [Example 109, 1-chloro-N-((5-fluoro-2,3-dihydrobenzofuran-4-yl)methyl)-8-(4-(methylsulfonyl)phenyl)imidazo[1,5-c]pyrimidin-5-amine] | 0.015 | 0.0122 | 0.0994
12 | Cc1ncccc1-c1cnc(NCc2c(F)ccc3c2CCO3)n2cnc(CO)c12 [Example 120, (5-(((5-fluoro-2,3-dihydrobenzofuran-4-yl)methyl)amino)-8-(2-methylpyridin-3-yl)imidazo[1,5-c]pyrimidin-1-yl)methanol] | 0.0241 | 0.0114 | 0.0156
13 | CS(=O)(=O)c1ccc(-c2cnc(NCc3c(F)ccc4c3CCO4)n3cncc23)cc1 [Example 19, N-((5-fluoro-2,3-dihydrobenzofuran-4-yl)methyl)-8-(4-(methylsulfonyl)phenyl)imidazo[1,5-c]pyrimidin-5-amine] | 0.0104 | 0.0085 | 0.0601
14 | CN(C)c1ccc(-c2cnc(NCc3c(F)ccc4c3CCO4)n3cncc23)cn1 [Example 41, 8-(6-(dimethylamino)pyridin-3-yl)-N-((5-fluoro-2,3-dihydrobenzofuran-4-yl)methyl)imidazo[1,5-c]pyrimidin-5-amine] | 0.0146 | 0.0412 | 0.0512
15 | Cc1ncn2c(NCc3c(F)ccc4c3CCO4)ncc(-c3ccc(S(C)(=O)=O)cc3)c12 [Example 4, N-((5-fluoro-2,3-dihydrobenzofuran-4-yl)methyl)-1-methyl-8-(4-(methylsulfonyl)phenyl)imidazo[1,5-c]pyrimidin-5-amine] | 0.0295 | 0.0156 | 0.0325
16 | N#Cc1ncn2c(NCc3c(F)ccc4c3CCO4)ncc(-c3cccnc3CO)c12 [Example 78, 5-(((5-fluoro-2,3-dihydrobenzofuran-4-yl)methyl)amino)-8-(2-(hydroxymethyl)pyridin-3-yl)imidazo[1,5-c]pyrimidine-1-carbonitrile] | 0.0162 | 0.0051 | 0.0179
17 | c1cc(CNc2ncc(-c3ccc(N4CCNCC4)nc3)c3cncn23)c2ccoc2c1 [Example 66, N-(benzofuran-4-ylmethyl)-8-(6-(piperazin-1-yl)pyridin-3-yl)imidazo[1,5-c]pyrimidin-5-amine] | 0.0493 | 0.0721 | 0.444
18 | CN(C)S(=O)(=O)c1ccc(-c2cnc(NCc3c(F)ccc4c3CCO4)n3cncc23)cc1 [Example 18, 4-(5-(((5-fluoro-2,3-dihydrobenzofuran-4-yl)methyl)amino)imidazo[1,5-c]pyrimidin-8-yl)-N,N-dimethylbenzenesulfonamide] | 0.0151 | 0.0101 | 0.046
19 | Fc1ccc2c(c1CNc1ncc(-c3ccc(CN4CCCC4)cc3)c3cncn13)CCO2 [Example 39, N-((5-fluoro-2,3-dihydrobenzofuran-4-yl)methyl)-8-(4-(pyrrolidin-1-ylmethyl)phenyl)imidazo[1,5-c]pyrimidin-5-amine] | 0.0101 | 0.0105 | 0.031
20 | CCN1CCN(c2ccc(-c3cnc(NCc4c(F)ccc5c4CCO5)n4cnc(C#N)c34)cn2)CC1 [Example 81, 8-(6-(4-ethylpiperazin-1-yl)pyridin-3-yl)-5-(((5-fluoro-2,3-dihydrobenzofuran-4-yl)methyl)amino)imidazo[1,5-c]pyrimidine-1-carbonitrile] | 0.0351 |  | 0.0148
21 | COc1cccc(F)c1CNc1ncc(-c2ccc(CN(C)C)cc2)c2cncn12 [Example 68, 8-(4-((dimethylamino)methyl)phenyl)-N-(2-fluoro-6-methoxybenzyl)imidazo[1,5-c]pyrimidin-5-amine] | 0.246 | 0.201 | 
22 | CCOC(=O)c1ncn2c(NCc3c(F)ccc4c3CCO4)ncc(-c3cccnc3C)c12 [Example 95, ethyl 5-(((5-fluoro-2,3-dihydrobenzofuran-4-yl)methyl)amino)-8-(2-methylpyridin-3-yl)imidazo[1,5-c]pyrimidine-1-carboxylate] |  | 0.0055 | 0.002
23 | CS(=O)(=O)c1ccc(-c2cnc(NCc3c(F)ccc4c3CCO4)n3cnc(-c4ccccc4)c23)cc1 [Example 110, N-((5-fluoro-2,3-dihydrobenzofuran-4-yl)methyl)-8-(4-(methylsulfonyl)phenyl)-1-phenylimidazo[1,5-c]pyrimidin-5-amine] | 0.0094 |  | 0.0722
